Measured values from US5908868A, “Retinol derivatives useful for enhancing immune response” (priority 1995, dated 1999).
“Also recorded” adds a separate entry of the source.

B1: IFN-gamma: mouse recombinant IFN-gamma (protein, UniProt P01580 23-155, looked up)
Interferon gamma: HGTVIESLESLNNYFNSSGIDVEEKSLFLDIWRNWQKDGDMKILQSQIISFYLRLFEVLKDNQAISNNISVIESHLITTFFSNSKAKKDAFMSIAKFEVNNPQVQRQAFNELIRVVHQLLPESSLRKRKRSRC
B2: IL-1: Human recombinant IL-1-α (protein, UniProt P01583 113-271, looked up)
Interleukin-1 alpha: SAPFSFLSNVKYNFMRIIKYEFILNDALNQSIIRANDQYLTAAALHNLDEAVKFDMGAYKSSKDDAKITVILRISKTQLYVTAQDEDQPVLLKEMPEIPKTITGSETNLLFFWETHGTKNYFTSVAHPNLFIATKQDYWVCLAGGPPSITDFQILENQA
B3: IL-4: murine rIL-4 (protein, UniProt P07750 21-140, looked up)
Interleukin-4: HIHGCDKNHLREIIGILNEVTGEGTPCTEMDVPNVLTATKNTTESELVCRASKVLRIFYLKHGKTPCLKKNSSVLMELQRLFRAFRCLDSSISCTMNESKSTSLKDFLESLKSIMQMDYS

Tests used:
T cells = test: T cell activation/proliferation; assay type: cell-based, murine; settings: for activity in T cell activation relative to natural 13,14-DHR: synthetic isomers; for substitution for retinol in T cell activation: with mitogen/anti-CD3
Experimental: (§1) They were seeded into 96-well flat-bottom plates at varying cellular densities in a final volume of 100 μl. In control experiments, cells were cultured in medium containing 10% FCS or 3% human serum and 5×10^-5 M 2 ME. […] Cultures were carried out in duplicate. Plates were incubated at 37° C. in a humidified 5% CO2 atmosphere. Cellular proliferation was determined by [^3 H] thymidine uptake (0.5 uCi/well; New England Nuclear, Boston, Mass.) after the incubation times indicated for each experiment with a 4 hour labeling pulse. Cells were harvested onto glass filter and [^3 H]TdR incorporation was determined by liquid scintillation counting. The data presented are the means of duplicate or six replicate cultures. The restriction to duplicate measurements was necessary to conserve scarce 14HRR. […] Each experiment was repeated at least twice.

B lymphocytes [1] = test: B cell growth/survival; assay type: cell-based; settings: synthetic isomers
thymocytes [2] = test: Proliferation of anti-CD3e activated thymocytes in serum-free medium; assay type: cell-based, BALB/c mouse
Experimental: FIG. 14A: Purified BALB/c thymocytes were activated with immobilized anti-CD3e antibody and cultivated for four days in ITLB medium with or without retinol (3×10^-6 M), 14HRR (6×10^-7 M) (fresh 14HRR was added every 12 hours), human serum (3%) or FCS (10%) at the cellular densities shown. Proliferation was assayed by tritiated thymidine incorporation into cellular DNA. The SDs were below 20%.
FIG. 14B: BALB/c thymocytes (10^6 /ml) were added to microtiter plates coated with titrated amounts of anti-CD3e antibody with […] retinol or without, as indicated. Proliferation was measured in hexaduplicate wells on day 3 by ^3 H thymidine incorporation assay.
FIG. 14C: BALB/c thymocytes (3×10^6 /ml) were activated with anti-CD3e mAb as FIG. 1A. The total number of viable cells was determined by counting trypan blue-excluding cells, and those of blast cells by counting viable large cells in six replicate wells. Because of the relatively low cell density required in the culture (see FIG. 14A), the numbers reported for blast cells are best estimates.
Purified thymocytes (5×10^5 cells/well) were stimulated by TCR crosslinking with immobilized anti-CD3e antibody (FIG. 15A) or 0.4 μg/ml Con A (FIG. 15B) in serum-free ITLB medium. The indicated amounts of retinoids were added either once at the beginning of the experiment (marked as "1x") or every 12 hours thereafter (marked as "6x"). DNA synthesis was measured after 72 hours by tritiated thymidine uptake as described.
Purified thymocytes (10^5 cells/well) were activated with anti-CD3 antibody in ITLB medium with or without retinol (3×10^-6 M), 14HRR (6×10^-7, added every 12 hours or human serum (3%)). DNA synthesis was measured daily by a 4 hour pulse of tritiated thymidine. SDs were ≤12%.
Thymocytes (5×10^4 /well) were activated by immobilized anti-CD3 mAb in medium ITLB. Retinol (2×10^-6 M) was added at initiation of culture, or delayed by 12 hours and 24 hours, respectively, or omitted altogether. ^3 H thymidine pulses of 4 hours were used to measure DNA synthesis of hexaduplicate wells. (SDs were 20% or less.)
Thymuses of 3 to 6-week-old BALB/c mice were teased in serum-free RPMI medium supplemented with 1% BSA, 10^-6 M linoleic acid and antibiotics. Depletion of accessory cells was achieved by two cycles of complement-dependent lysis with a mixture of anti-IA^d (5 μg/ml) and anti-Itd (1:500 diluted ascites fluid). Briefly, cells were incubated on ice for 30 minutes with Ia antibodies, spun down, resuspended in 1:40 diluted rabbit complement, and incubated at 37° C. for 45 minutes. Incubations and two subsequent washes were carried out with RPMI medium containing 1% BSA. Cell viability was evaluated by trypan blue dye exclusion. To determine the extent of depletion of accessory cells, samples were stained with FITC-conjugated anti-Fc receptor antibody and analyzed by flow cytometry on a FACScan instrument (Becton Dickinson). No FcR-bearing cells were detected by this procedure.
Cells were cultured in serum-free medium, referred to as ITLB, containing RPMI 1640 supplemented with 8×10^-7 M insulin (5 μg/ml), 7×10^-8 M transferrin (5 μg/ml), 2×10^-6 M linoleic acid, 2×10^-6 M delipidated BSA (0.12 mg/ml), 2 mM L-glutamine, 1 mM sodium pyruvate and antibiotics. They were seeded into 96-well flat-bottom plates at varying cellular densities in a final volume of 100 μl. In control experiments, cells were cultured in medium containing 10% FCS or 3% human serum and 5×10^-5 M 2 ME. T cells and thymocytes were activated with immobilized, purified anti-mab CD3e or by the addition of Con A in the presence or absence of different concentrations of retinoids. Unless indicated otherwise, retinoids were replenished every 12 hours to maintain a reasonably constant concentration of these labile compounds in culture. […]

[3] = tested on: lymphoblastoid cells (LCL); settings: serum-free medium; cited from earlier work
B lymphocytes [4] = settings: previous analyses with B lymphocytes (33); cited from earlier work
thymocytes [5] = test: Growth-stimulating effect of retinol on anti-CD3 activated thymocytes in the presence of interleukins; assay type: cell-based, BALB/c mouse; settings: 3 days
thymocytes [6] = test: as above; assay type: cell-based, BALB/c mouse; settings: for substitution for retinol by lymphokines/cytokines: anti-CD3-activated thymocytes; for substitution for retinol by lymphokines/cytokines / CPM anti-CD3, no Retinol: no retinol; for CPM anti-CD3, no Retinol: 3 days
Experimental: as §1, with “Cells were cultured in serum-free medium, referred to as ITLB, containing RPMI 1640 supplemented with 8×10^-7 M insulin (5 μg/ml), 7×10^-8 M transferrin (5 μg/ml), 2×10^-6 M linoleic acid, 2×10^-6 M delipidated BSA (0.12 mg/ml), 2 mM L-glutamine, 1 mM sodium pyruvate and antibiotics. They” for “They”, “ME. T cells and thymocytes were activated with immobilized, purified anti-mab CD3e or by the addition of Con A in the presence or absence of different concentrations of retinoids. Unless indicated otherwise, retinoids were replenished every 12 hours to maintain a reasonably constant concentration of these labile compounds in culture.” for “ME.”
Proliferation of activated thymocytes in response to interleukins in presence and absence of retinol. Purified thymocytes (5×10^5 cells/well) were activated with immobilized anti-CD3 antibody in serum-free medium in the presence or absence of interleukins and retinol (3×10^-6 M). Proliferation was assayed after three days by tritiated thymidine incorporation.

Molecule	activity in T cell activation relative to natural 13,14-DHR (T cells)	activity in supporting B cell growth relative to natural 13,14-DHR (B lymphocytes [1])	substitution for retinol in T cell activation (T cells)	CPM anti-CD3, 10^-6 M Retinol (thymocytes [5])	substitution for retinol by lymphokines/cytokines (thymocytes [6])	CPM anti-CD3, no Retinol (thymocytes [6])	also measured
CC1=C(/C=C/C(C)=C\C=C\[C@@](C)(O)[C@H](O)CO)C(C)(C)CCC1 [9-cis-(13R, 14R)-DHR]	same activity	same activity					
CC1=C(/C=C/C(C)=C\C=C\[C@](C)(O)[C@H](O)CO)C(C)(C)CCC1 [9-cis-(13S, 14R)-DHR]	same activity	same activity					
CC1=C(/C=C/C(C)=C/C=C/C(C)=C\CO)C(C)(C)CCC1 [13-cis-retinol]			can substitute for retinol				effectiveness relative to all-trans retinol (thymocytes [2]): equally effective as all-trans retinol
CC1=C(/C=C/C(C)=C/C=C/[C@@](C)(O)[C@H](O)CO)C(C)(C)CCC1 [all-trans (13R, 14R)-DHR]	same activity	same activity					
CC1=C(/C=C/C(C)=C/C=C/[C@](C)(O)[C@H](O)CO)C(C)(C)CCC1 [all-trans (13S, 14R)-DHR]	same activity	same activity					
CC1=C(/C=C/C(C)=C/C=C/C(C)=C/C=O)C(C)(C)CCC1 [all-trans retinal]			can substitute for retinol				support of growth of LCL [3]: support the growth of LCL; concentration at which activity was demonstrated (B lymphocytes [4]): 200 nM; effectiveness relative to all-trans retinol (thymocytes [2]): equally effective as all-trans retinol
IL-6: hrIL-6 purchased from Boehringer Mannheim				130,590 ± 25,803 CPM	None and none	1,005 ± 815 CPM	
TNF-alpha			cannot be satisfied	122,905 ± 11,577 CPM	none	464 ± 95 CPM	substitution for retinol by lymphokines/cytokines (thymocytes [6]; listed as TNF-α): does not
B1			can substitute for retinol	220,359 ± 27,726 CPM	can circumvent the retinol requirement and initiate durable proliferation in the absence of retinol or 14HRR	81,876 ± 11,866 CPM	substitution for retinol by lymphokines/cytokines (thymocytes [6]; listed as interferon-gamma): can sustain thymocyte proliferation in the absence of retinol; also recorded: quite efficient in anti-CD3-mediated activation in the absence of retinol; synergy with retinol (thymocytes [6]): strong additive effects; synergy with retinol (thymocytes [6]; listed as Interferon-gamma): clear additive effect with retinol
B2				118,924 ± 3,051 CPM	None and none	959 ± 30 CPM	
B3				115,849 ± 20,630 CPM	None and none	991 ± 105 CPM	
